According to patent US7868026B2, “Therapeutic compounds” (Pfizer Inc., priority 2005, dated 2011):
Like-named read-outs stand apart in the source and are kept apart here.

Columns and labels:
CYP3A4 [1] = target: T1, CYP3A4 (Homo sapiens, UniProt P08684); test: Determination of IC50 against CYP3A4 by measurement of inhibition of midazolam metabolism (human liver microsomes, 1-hydroxymidazolam by LC-MS/MS); format: biochemical; set-up: 0.1 mg/mL human liver microsomes; details: 2 μM midazolam, 0.1 mg/mL human liver microsomes
T1 sequence (P08684 whole entry): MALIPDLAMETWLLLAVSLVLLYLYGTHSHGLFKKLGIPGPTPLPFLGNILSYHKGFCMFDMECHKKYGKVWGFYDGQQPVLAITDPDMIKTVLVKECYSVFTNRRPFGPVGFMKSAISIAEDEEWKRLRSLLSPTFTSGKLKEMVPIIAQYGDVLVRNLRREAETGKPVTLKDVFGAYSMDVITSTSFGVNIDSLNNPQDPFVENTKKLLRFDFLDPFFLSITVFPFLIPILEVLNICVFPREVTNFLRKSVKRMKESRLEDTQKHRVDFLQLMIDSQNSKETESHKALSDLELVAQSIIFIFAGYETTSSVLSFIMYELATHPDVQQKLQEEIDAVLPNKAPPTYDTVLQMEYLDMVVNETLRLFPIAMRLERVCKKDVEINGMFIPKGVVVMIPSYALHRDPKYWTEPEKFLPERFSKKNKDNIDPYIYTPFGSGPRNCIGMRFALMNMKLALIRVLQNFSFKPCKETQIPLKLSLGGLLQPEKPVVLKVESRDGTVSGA
Experimental: 3. Determination of IC50 Against CYP3A4 by Measurement of Inhibition of Midazolam Metabolism
This assay was performed using a standard 96 well plate design. […] The incubation substrate mix contains 2 μM midazolam, 0.1 mg/mL human liver microsomes, 1 mM NADPH, and potassium phosphate buffer (100 mM, pH 7.4). Quantitation of metabolite peak area ratio against internal standard is determined by LC-MS/MS analysis. The production of 1-hydroxymidazolam from midazolam metabolism is determined after incubation for eight minutes by comparison to a standard curve generated for the metabolite.
Samples were analyzed in the MRM mode using a Sciex API 3000 mass spectrometer (Applied Biosystems, Foster City, Calif.) with a Paradigm MS4 binary pump (Michrom BioResources Inc., Auburn, Calif.) and a LEAP CTC PAL autosampler (LEAP Technologies, Carrboro, N.C.). A Phenomenex Synergi, 4μ, Polar-RP, 10×2.0 mm column (Phenomenex, Torrance, Calif.) was used for separation with a mobile phase composition of: 0.1% formic acid in water (A) and: 0.1% formic acid in methanol (B). The following gradient was used: […]
The sample injection volume was 10 μL and flow was split post-column with 0.4 mL/min going to the mass spectrometer. Analysis was performed using the following API 3000 mass spectrometer settings: […]

CYP3A4 [2] = target: T1, CYP3A4; test: Determination of compound Kiapp against recombinant CYP3A4 enzyme (BFC fluorescent substrate); format: biochemical
Experimental: 1. Determination of compound Kiapp
A determination of the Kiapp of the compounds of the invention against recombinant CYP3A4 enzyme was performed as follows. The assay was performed in a 100 mM sodium phosphate buffer pH 7.0, 5 mM TCEP and containing 2% dimethylformamide (final concentration) upon addition of substrate and inhibitor. A typical reaction for the determination of Kiapp values was carried at room temperature in a solid black Costar u-bottom 96-well polypropylene plate. In each well, recombinant CYP3A4 enzyme (5.5 nM or 8 nM, final concentration depending on the commercial source of the enzyme) was pre-incubated in the presence of the inhibitor for at least 30 minutes in the assay buffer. When pre-incubation was completed (˜30 min), the reaction was initiated by adding NADPH (200 uM, final concentration), and 7-benzyloxy-4-(trifluoromethyl)-coumarin (BFC) (5 uM, final concentration). The oxidation of the coumarin substrate was recorded by a 96-well plate reader POLARstar (BMG LABTECH, Offenburg, Germany).
The initial reaction velocities were measured during the first 5 min of the reaction when the release of the fluorescent product is linear with time, in the absence and in the presence of various concentrations of inhibitors. For non-partial & partial inhibitors, the Kiapp values were determined by using the equation for tight-binding inhibitor developed by Morrison, J F (Morrison J F. Biochim Biophys Acta. 1969, 185: 269-86) and by Szedlaseck S E et al. (Szedlascek, S. E., Ostafe, V., Serban, M., and Vlad, M.O. Biochem. J. 1988, 254:311-312), respectively.
The fluorescent substrate BFC was purchased from Sigma (St Louis, Mo.). Two commercial sources of recombinant enzymes were used in this study: recombinant CYP3A4−b5 enzyme (Baculosomes®) was purchased from Invitrogen (Carlsbad, Calif.) and the recombinant CYP3A4+b5 enzyme (Supersomes®) was purchased from BD Biosciences (Woburn, Mass.).

[3] = Baculo. enzyme preparation, read-out: Kiapp (BFC, Baculo.)
[4] = Super. enzyme preparation, read-out: Kiapp (BFC, Super.)

## CC[C@H](C)NC(=O)c1ccccc1S(=O)(=O)Nc1cncc(OC)c1 [Example 102, 2-{[(5-methoxypyridin-3-yl)amino]sulfonyl}-N-[(1S) -1-methylpropyl]benzamide]
CYP3A4 [1]
  IC50: 55 nM
CYP3A4 [2]; [3]
  Ki: 375 nM
CYP3A4 [2]; [4]
  Ki: 56 nM

## COc1cncc(NS(=O)(=O)c2ccccc2C(=O)NC(C)Cc2ccc(F)c(F)c2)c1 (stereo not drawn) [Example 135]
CYP3A4 [1]
  IC50: 18 nM
CYP3A4 [2]; [3]
  Ki: 24.8 nM
CYP3A4 [2]; [4]
  Ki: 4.9 nM

## COc1cncc(NS(=O)(=O)c2ccccc2C(=O)NCc2ccc(Cl)c(F)c2)c1 [Example 132, N-(4-chloro-3-fluorobenzyl)-2-{[(5-methoxypyridin-3-yl)amino]sulfonyl}benzamide]
CYP3A4 [1]
  IC50: 8 nM
CYP3A4 [2]; [3]
  Ki: 40.6 nM
CYP3A4 [2]; [4]
  Ki: 8.4 nM

## Nc1cncc(NS(=O)(=O)c2ccccc2C(=O)NCc2ccc(F)c(F)c2)c1 [Example 117, 2-{[(5-aminopyridin-3-yl)amino]sulfonyl}-N-(34-difluorobenzyl)benzamide]
CYP3A4 [1]
  IC50: 20 nM
CYP3A4 [2]; [3]
  Ki: 159 nM
CYP3A4 [2]; [4]
  Ki: 14.8 nM

## COc1ccccc1CNC(=O)c1ccccc1S(=O)(=O)Nc1cncc(C)c1 [Example 93, N-(2-methoxybenzyl)-2-{[(5-methylpyridin-3-yl)amino]sulfonyl}benzamide]
CYP3A4 [1]
  IC50: 10 nM
CYP3A4 [2]; [3]
  Ki: 166 nM
CYP3A4 [2]; [4]
  Ki: 14.7 nM

## COc1ccncc1NS(=O)(=O)c1ccccc1C(=O)N[C@@H](C)C(C)C [Example 108]
CYP3A4 [1]
  IC50: 98 nM
CYP3A4 [2]; [3]
  Ki: 506 nM
CYP3A4 [2]; [4]
  Ki: 115 nM

## COc1cncc(NS(=O)(=O)c2ccccc2C(=O)N(CC(C)O)C(C)C)c1 (stereo not drawn) [Example 99, N-(2-hydroxypropyl)-N-isopropyl-2-{[(5-methoxypyridin-3-yl)amino]sulfonyl}benzamide]
CYP3A4 [1]
  IC50: 90 nM
CYP3A4 [2]; [3]
  Ki: 406 nM
CYP3A4 [2]; [4]
  Ki: 223 nM

## Cc1cncc(NS(=O)(=O)c2ccccc2C(=O)NC(C(C)C)C(C)C)c1 [Example 92, N-(1-isopropyl-2-methylpropyl)-2-{[(5-methylpyridin-3-yl)amino]sulfonyl}benzamide]
CYP3A4 [1]
  IC50: 22 nM
CYP3A4 [2]; [3]
  Ki: 45.7 nM
CYP3A4 [2]; [4]
  Ki: 17.5 nM

## CCOc1ccncc1NS(=O)(=O)c1ccccc1C(=O)N(C)Cc1ccccc1F [Example 124, 2-{[(4-ethoxypyridin-3-yl)amino]sulfonyl}-N-(2-fluorobenzyl)-N-methylbenzamide]
CYP3A4 [1]
  IC50: 14 nM
CYP3A4 [2]; [3]
  Ki: 136 nM
CYP3A4 [2]; [4]
  Ki: 18 nM

## CCOc1ccncc1NS(=O)(=O)c1ccccc1C(=O)N[C@@H](C)C(C)C [Example 107, N-[(1S)-12-dimethylpropyl]-2-{[(4-ethoxypyridin-3-yl)amino]sulfonyl}benzamide]
CYP3A4 [1]
  IC50: 57 nM
CYP3A4 [2]; [3]
  Ki: 214 nM
CYP3A4 [2]; [4]
  Ki: 44 nM

## Cc1cncc(NS(=O)(=O)c2ccccc2C(=O)NC(C)CC(C)C)c1 (stereo not drawn) [Example 95, N-(1,3-dimethylbutyl)-2-{[(5-methylpyridin-3-yl)amino]sulfonyl}benzamide]
CYP3A4 [1]
  IC50: 8 nM
CYP3A4 [2]; [3]
  Ki: 78 nM
CYP3A4 [2]; [4]
  Ki: 25.4 nM

## COc1cncc(NS(=O)(=O)c2ccccc2C(=O)NCC(F)(F)C(F)(F)C(F)(F)F)c1 [Example 131, N-(2,2,3,3,4,4,4-heptafluorobutyl)-2-{[(5-methoxypyridin-3-yl)amino]sulfonyl}benzamide]
CYP3A4 [1]
  IC50: > 750 nM
CYP3A4 [2]; [3]
  Ki: > 1000 nM
CYP3A4 [2]; [4]
  Ki: 329 nM

## CCOc1ccncc1NS(=O)(=O)c1ccccc1C(=O)NC(C)CC (stereo not drawn) [Example 119, N-(sec-butyl)-2-{[(4-ethoxypyridin-3-yl)amino]sulfonyl}benzamide]
CYP3A4 [1]
  IC50: 45 nM
CYP3A4 [2]; [3]
  Ki: 249 nM
CYP3A4 [2]; [4]
  Ki: 71.2 nM

## Cc1ccncc1NS(=O)(=O)c1ccccc1C(=O)N(C)Cc1ccccc1 [Example 139, N-benzyl-N-methyl-2-{[(4-methylpyridin-3-yl)amino]sulfonyl}benzamide]
CYP3A4 [1]
  IC50: 48 nM
CYP3A4 [2]; [3]
  Ki: 388 nM
CYP3A4 [2]; [4]
  Ki: 51.1 nM

## Cc1cncc(NS(=O)(=O)c2ccccc2C(=O)NCc2ccc(C#N)cc2Cl)c1 [Example 91, N-(2-chloro-4-cyanobenzyl)-2-{[(5-methylpyridin-3-yl)amino]sulfonyl}benzamide]
CYP3A4 [1]
  IC50: 18 nM
CYP3A4 [2]; [3]
  Ki: 58 nM
CYP3A4 [2]; [4]
  Ki: 17.2 nM
